Measurements reported in patent US8010296B2, “Apparatus and method for removing non-discriminatory indices of an indexed dataset” (Drexel University, priority 2002, dated 2011).

System: rat liver
Conditions: treated rats, liver samples; selection by visual inspection and ALT measurement
Method: Forty-eight polypeptide spectra were prepared from rat liver samples under four toxicological conditions (G=4).
While it was desirable that samples from each group be completely separated from those of other groups, it was especially important that samples from Group 4 (high toxicity) were separated from the others.

## S=C=Nc1cccc2ccccc12 [Alpha-naphthyl Isothiocyanate (ANIT), Alpha-naphthyl Isothiocyanate]
  Toxicity: Mild

## ClC(Cl)(Cl)Cl [Carbon Tetrachloride (CCl4), Carbon Tetrachloride]
  Toxicity: Mild
